From ChEMBL document CHEMBL1129504, “Structure-activity relationship for antineoplastic imidazoacridinones: synthesis and antileukemic activity in vivo” (1996)

Tested on: Mus musculus
Assay: In vivo activity against murine P388 leukemia in mice at optimal dose 70 mg/kg/day
Assay type: functional

CN(C)CCCCCNc1ccc2ncn3c4ccc(O)cc4c(=O)c1c23
T/C: 172%
